# Assay results published in ChEMBL document CHEMBL5104103 (J Med Chem, 2022).
# Assays:
# [1] = target: T1, Tyrosine-protein kinase Tec (Homo sapiens) (UniProt P42680); assay: Displacement of competitive tracer from TEC (unknown origin) assessed as target occupancy at […] preincubated for 15 mins measured for 1 hr relative to control; conditions: dose 1.5 µM
# T1 sequence (whole entry): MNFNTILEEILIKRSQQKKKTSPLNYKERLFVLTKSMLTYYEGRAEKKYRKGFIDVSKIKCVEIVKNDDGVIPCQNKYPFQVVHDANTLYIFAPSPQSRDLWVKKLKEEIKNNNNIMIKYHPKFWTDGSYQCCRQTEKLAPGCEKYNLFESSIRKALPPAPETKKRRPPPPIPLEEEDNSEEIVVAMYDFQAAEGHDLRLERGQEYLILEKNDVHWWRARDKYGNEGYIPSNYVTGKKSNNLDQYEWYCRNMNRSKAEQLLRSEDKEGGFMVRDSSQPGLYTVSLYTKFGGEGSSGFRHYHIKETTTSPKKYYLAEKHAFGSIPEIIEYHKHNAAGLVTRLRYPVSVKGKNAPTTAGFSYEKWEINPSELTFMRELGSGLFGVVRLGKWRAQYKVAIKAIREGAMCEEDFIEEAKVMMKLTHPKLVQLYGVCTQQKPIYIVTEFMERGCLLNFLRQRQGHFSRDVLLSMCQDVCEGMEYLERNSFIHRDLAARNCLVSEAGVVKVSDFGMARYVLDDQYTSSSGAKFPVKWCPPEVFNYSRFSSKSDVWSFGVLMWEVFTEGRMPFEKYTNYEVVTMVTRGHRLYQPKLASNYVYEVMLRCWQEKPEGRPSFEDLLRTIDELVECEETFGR
# [2] = target: T1, Tyrosine-protein kinase Tec (Homo sapiens); assay: Displacement of competitive tracer from TEC (unknown origin) assessed as target occupancy at […] preincubated for 15 mins measured for 6 hrs relative to control; conditions: dose 1.5 µM
# [3] = target: T2, Tyrosine-protein kinase TXK (Homo sapiens) (UniProt P42681); assay: Displacement of competitive tracer from RLK (unknown origin) assessed as target occupancy at […] preincubated for 15 mins measured for 6 hrs relative to control; conditions: dose 1.5 µM
# T2 sequence (whole entry): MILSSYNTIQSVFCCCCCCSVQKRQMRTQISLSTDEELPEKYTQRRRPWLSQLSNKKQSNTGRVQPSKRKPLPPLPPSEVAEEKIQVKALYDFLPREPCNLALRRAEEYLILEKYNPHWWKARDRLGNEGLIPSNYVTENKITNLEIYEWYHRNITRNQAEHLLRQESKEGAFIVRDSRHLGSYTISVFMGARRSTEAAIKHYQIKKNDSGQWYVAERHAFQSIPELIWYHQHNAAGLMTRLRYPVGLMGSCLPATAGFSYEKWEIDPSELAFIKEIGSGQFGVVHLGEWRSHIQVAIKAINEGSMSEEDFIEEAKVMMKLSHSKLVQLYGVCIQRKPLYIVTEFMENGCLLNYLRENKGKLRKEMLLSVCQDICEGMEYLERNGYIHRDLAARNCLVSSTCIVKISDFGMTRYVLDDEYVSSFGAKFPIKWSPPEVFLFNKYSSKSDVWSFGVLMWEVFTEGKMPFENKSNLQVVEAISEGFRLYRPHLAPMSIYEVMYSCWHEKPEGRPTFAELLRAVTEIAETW
# [4] = target: T2, Tyrosine-protein kinase TXK (Homo sapiens); assay: Displacement of competitive tracer from RLK (unknown origin) assessed as target occupancy at […] preincubated for 15 mins measured for 24 hrs relative to control; conditions: dose 1.5 µM
# [5] = Inhibition of NFAT activation in anti-CD3/anti-CD28-stimulated human Jurkat T cells; type: cell-based
# [6] = Clearance in rat liver S9 fraction assessed as measuring per mg protein; type: ADME, subcellular; conditions: read-out: CLH
# [7] = Drug concentration in plasma of collagen-induced arthritis Lewis rat model 10 mg/kg/day, po measured after 12 hrs post-collection of plasma; type: ADME, organism-based
# [8] = Toxicity in female Beagle dog assessed as reduction in activity up to 400 mg/kg/day qd for 12 weeks; type: organism-based, Canis lupus familiaris; conditions: in vivo, 2016 h
smiles,measurement,setting,value
CC(C)(C)/C=C(\C#N)C(=O)N1CCC[C@@H](n2nc(-c3ccc(Oc4ccccc4)cc3F)c3c(N)ncnc32)C1 [ATUZABRUTINIB],Activity,[1],87%
same,Activity,[2],80%
same,Activity,[3],86%
same,Activity,[4],85%
same,IC50,[5],2100 nM
same,microsomal CLint,[6],54 µL/min/mg
same,concentration at 12 h,[7],10 ng/mL
same,Activity,[8],Toxic
